Data on two compounds can be found in patent publication US10980901B2, “Treatment of PMSA expressing cancers” (THE EUROPEAN ATOMIC ENERGY COMMUNITY (EURATOM), REPRESENTED …, priority 2016, dated 2021).

Some results are limits rather than exact numbers.

Data set [1] relates to PSMA expressing cancers. The experiment in a line: Treatment response monitored by PSA values in blood, patient cohorts. Format: in vivo, patients. Particulars: for patients in PSA response / patients in PSA response (percentage): at week-24. As to the method: 20 Patients were treated 3 times with activities of 100 kBq/kg body weight of Ac-225-PSMA-617 in two month intervals.
Treatment response was monitored by PSA values in blood and with PET/CT (positron emission tomography-computed tomography) with Ga-68-PSMA-HBED-CC (also called Gallium-68-PSMA11) before therapy and after the third therapy.
Experiments have been conducted to compare the efficiency of the Ac-225-radiopharmaceuticals as used in the present invention, such as Ac-225-PSMA-617, with that of non-Ac-225-radiopharmaceuticals comprising the same targeting compound, but chelated e.g. with Lu-177, such as a radionuclide Lu-177-PSMA-617.

Data set [2] is described as follows: Toxicity monitored by blood sampling and clinical side effects, patient cohorts. The format is in vivo, patients. Conditions: patient cohort; for change in thrombocyte or white blood cell count: during therapy; for dysfunction of salivary glands: reported side effect; for tolerability of the treatment: lab tests every 4 weeks, clinical side effects every 8 weeks. As to the method:
Toxicity was monitored by blood sampling.
Hematologic response was evaluated every 4 weeks per lab tests and clinical side effects were monitored every 8 weeks.

Data set [3] concerns metastatic castration-resistant prostate cancer (mCRPC). The experiment in a line: Treatment of individual mCRPC patients A and B: PSA level and PSMA PET/CT restaging. Format: in vivo. As to the method:
Clinical Course of Patient A presented with diffuse red marrow infiltration of mCRPC (this physical condition was considered a contraindication for treatment with β-emitters). Patient A was treated with 3 cycles of 9-10 MBq (100 kBq per kilogram of body weight) of Ac-225-PSMA-617 at bimonthly intervals.
(§1) Patient B was initially treated with Lu-177-PSMA-617 (7.4 GBq per cycle), which was offered as salvage therapy. The initial PSA level was 294 ng/ml. […] Therapy was changed to Ac-225-PSMA-617, and the patient received 3 cycles of 6.4 MBq (100 kBq per kilogram of body weight) at bimonthly intervals.

A short description of data set [4]: Laboratory test follow-up and side effects of individual mCRPC patients A and B. The format is in vivo.
Description: After each cycle, the blood cell count and alkaline phosphatase level were checked every 2 week. The platelet level never dropped below 100/n1 (grade 1 according to the Common Terminology Criteria for Adverse Events, version 4.0), the total white blood cell count never dropped below 2.5/n1 (grade 1), and the hemoglobin level never dropped below 9.5 g/dl (grade 2) (FIG. 13A). […] A concordant decline in PSA level and alkaline phosphatase level (FIG. 13B) further underlined the excellent treatment response.
as §1

Data set [5] relates to PSMA expressing cancers. The experiment in a line: Treatment response monitored by PSA values in blood, patient cohorts. The format is in vivo, patients. Particulars: comparative example.
Where [6] appears, read: eight weeks after the first treatment cycle, 20 patients, 100 kBq/kg body weight.
The mark [7] stands for this setting: sixteen weeks after the first treatment cycle, 20 patients, 100 kBq/kg body weight.
Where [8] appears, read: twenty-four weeks after the first treatment cycle, 20 patients, 100 kBq/kg body weight.
Setting [9] is: patient A, after additional 6 MBq consolidation therapy.
Setting [10] is: patient A, checked every 2 week after each cycle.
Where [11] appears, read: 30 patients, eight weeks after the first treatment cycle.

For the compound `O=C(O)CCC(NC(=O)NC(CCCCNC(=O)C(Cc1cccc2ccccc12)NC(=O)C1CCC(CNC(=O)CN2CCN(CC(=O)O)CCN(CC(=O)O)CCN(CC(=O)O)CC2)CC1)C(=O)O)C(=O)O` (stereo not shown) [Ac-225-PSMA-617, metal not drawn], in data set [1], the “patients in PSA response” value is given as 15/28 and the “patients in PSA response (percentage)” value came to 54%. For the same compound, in data set [1] (setting [6]), the “patients with decrease in PSA >25%” value is given as 17 patients and the “patients with decrease in PSA >50%” value stood at 12 patients. Further, the “patients presenting a decrease in PSA” value in data set [1] (eight weeks after the first treatment cycle, 20 patients, 100 kBq/kg body weight, 3 times in two month intervals) was 19/20. In data set [1] (setting [7]), the “patients presenting a decrease in PSA” value is listed as 15/20 and the “patients with decrease in PSA >50%” value came out at 14 patients. Besides, in data set [1] (setting [8]), the “patients presenting a decrease in PSA” value was 15/20 and the “patients with decrease in PSA >50%” value is 12 patients. Further, in data set [2], the “change in thrombocyte or white blood cell count” value is reported as “no significant change”, the “dysfunction of salivary glands” value was “Several patients reported dysfunction of salivary glands” and the “tolerability of the treatment” value is reported as “well tolerated”. For the same compound, the “tumor markers (PSA, alkaline phosphatase)” value in data set [3] (patient A, FIG. 13B) is given as “Decline of tumor markers to none measurable or reference range”. In data set [3] (setting [9]), the PSA level result is recorded as “less than 0.1 ng/ml” and the imaging response entry is given as “complete imaging response”. In data set [3] (patient A, two months after 3 cycles of 9-10 MBq (100 kBq/kg) at bimonthly intervals), the “previously PSMA-positive lesions on PSMA PET/CT” value is listed as “visually disappeared”. This compound also yielded a PSA level in data set [3] (patient A, two months after 3 cycles of 9-10 MBq, dropped from more than 3,000 ng/ml) of 0.26 ng/mL. The “restaging based on PSMA PET/CT” value in data set [3] (patient B, after 2 cycles of 6.4 MBq (100 kBq/kg) at bimonthly intervals, after failed Lu-177-PSMA-617) is “partial response”. Further, in data set [3] (patient B, after 3 cycles of 6.4 MBq (100 kBq/kg) at bimonthly intervals), the “restaging based on PSMA PET/CT” value is “complete remission”. This compound also came in with a PSA level in data set [3] (patient B, after 3 cycles of 6.4 MBq, below the measurable level) of under 0.1 ng/mL. Moreover, in data set [3] (patient B, after second and third cycles, FIG. 14C, 14D), the “restaging on 68-Ga-PSMA-11 PET/CT” value was “impressive response”. Also, in data set [4] (patient A), the “clinically reported side effect” value is “Moderate but enduring dysfunction of salivary glands”; the “hemoglobin level, CTCAE grade” value is “grade 2”; the “platelet level, grade according to Common Terminology Criteria for Adverse Events, version 4.0” value was “grade 1”; the “total white blood cell count, CTCAE grade” value was “grade 1”. The “hematologic toxicity (blood cell count)” value in data set [4] (patient A, FIG. 13A) was “moderate hematologic toxicity”. In data set [4] (setting [10]), the “hemoglobin level (lowest)” value was at least 9.5 g/dL, the “platelet level (lowest)” value is ≥ 100 /n1 and the “total white blood cell count (lowest)” value is listed as ≥ 2.5 /n1. Further, the reported side effect entry in data set [4] (patient B) is recorded as “severe dysfunction of salivary glands”. Moreover, the “hematologic toxicity (laboratory tests)” value in data set [4] (patient B, 3 cycles of 6.4 MBq) was “no relevant hematologic toxicity”.
Regarding `O=C([O-])CN1CCN(CC(=O)[O-])CCN(CC(=O)NCC2CCC(C(=O)N[C@@H](Cc3ccc4ccccc4c3)C(=O)NCCCC[C@H](NC(=O)N[C@@H](CCC(=O)O)C(=O)O)C(=O)O)CC2)CCN(CC(=O)[O-])CC1.[177Lu+3]` (stereo partly shown) [Lu-177-PSMA-617, reference compound], in data set [1], the “patients in PSA response” value is on record as 9/30 and the “patients in PSA response (percentage)” value is listed as 30%. Besides, the “response rate in comparison to Ac-225-PSMA-617 group” value in data set [1] (comparison of treated groups) was “lower response rate”. In data set [2], the “change in thrombocyte or white blood cell count” value is listed as “no significant change”, the “dysfunction of salivary glands” value is “Mild moderate dysfunction of salivary glands” and the “tolerability of the treatment” value is “well tolerated”. For the same compound, in data set [3] (patient B, after 2 cycles of Lu-177-PSMA-617), the “lesions on PSMA PET/CT, restaging” value is recorded as “tumor progression”. The PSA level in data set [3] (patient B, after cycle 2, 7.4 GBq per cycle, initial PSA level 294 ng/ml) worked out at 419 ng/mL. In data set [5] (setting [11]), the “patients presenting a decrease in PSA” value is reported as 21/30 and the “patients with decrease in PSA >50%” value stood at 16 patients. Moreover, the “patients presenting a decrease in PSA” value in data set [5] (30 patients, twenty-four weeks after the first treatment cycle, some patients dropped out) is on record as 9/30. In addition, the “patients with decrease in PSA >50% among those with PSA decrease” value in data set [5] (twenty-four weeks after the first treatment cycle) was “all of them”.
